Data: US4444753A, “Pharmaceutical composition comprising extract from poison pouch contents of bee” (priority 1979, dated 1984)

Key:
[1] = test system: B-16 melanoma cancerous cells; assay: Enhancement of carcinostatic activity of Adriamycin to B-16 melanoma cancerous cells (Table 12); assay type: in vivo, mouse (BDF1-strain); settings: 0.2 g cells i.p.; AM 2 mg/kg i.p., B-TL 1/10 none or 0.25 ml × 7 s.c.
Procedure: Fifteen grams of B-16 melanoma cell cluster was milled by means of a mesh, and then suspended in 15 ml of a physiological salt solution, after which the resulting suspension was transplanted intraperitoneally in BDF1 -strain mice (male, 6 weeks old) in an amount of 0.2 ml per mouse (i.e., 0.2 g of the cells were transplanted per mouse). B-TL 1/10 was administered subcutaneously at the back at a dose of 0.25 ml per mouse once a day for 7 days from the day of transplantation. Adriamycin (AM) was administered intraperitoneally once at a dose of 2 mg/kg on the day following the day of cancer transplantation.

[2] = test system: Ehrlich's ascites cancerous cells; assay: Enhancement of carcinostatic activity of Carboquan or Adriamycin to Ehrlich's ascites cancer cells (Table 10); assay type: in vivo, mouse (ICR-strain); settings: 1×10^5 cells, B-TL 1/10 none or 0.25 ml × 7 s.c.
Procedure: (2) Ehrlich's ascites cancerous cells were inoculated intraperitoneally into ICR-strain mice male, 6 weeks old) in an amount of 1×10^5 cells per mouse. B-TL 1/10 was administered subcutaneously at the back at a dose of 0.25 ml per mouse once a day repeatedly from the day of inoculation for 7 days in total. On the day following the inoculation of the cancerous cells, 0.25 mg/kg of Carboquan (CQ) or 5 mg/kg of Adriamycin (AM) was administered intraperitoneally.

[3] = test system: Ehrlich's ascites cancer cells; assay: Enhancement of carcinostatic activity of Mitomycin C to Ehrlich's ascites cancer cells (Table 9); assay type: in vivo, mouse (ICR-strain); settings: 1×10^5 cells; MMC 0.5 mg/kg i.p.
Procedure: (1) Ehrlich's ascites cancer cells were inoculated intraperitoneally into ICR-strain mice (female, 6 weeks old) in an amount of 1×10^5 cells per mouse, and B-TL 1/10 was administered subcutaneously at the back at a dose of 0.25 ml per mouse once a day repeatedly from the third day after the inoculation of the cancerous cells for 7 days in total. Mitomycin C (MMC) was administered intraperitoneally at a dose of 0.5 mg/kg on the first day after the inoculation of the cancerous cells.

[4] = test system: L-1210 leukemia cells; assay: Enhancement of carcinostatic activity of Mitomycin C to L-1210 leukemia cells (Table 4); assay type: in vivo, mouse (BDF1-strain); settings: for Number of survivors/Number of tested mice (on the 38th day) / T/C (%): MMC 4 mg/kg i.p., B-TL 1/10 none or 0.25 ml × 7 s.c.
Procedure: (§1) (1) L-1210 leukemia cells were inoculated intraperitoneally into BDF1 -strain mice (male, 6 to 7 weeks old) in an amount of 1×10^3, 1×10^4 or 1×10^5 cells per mouse, B-TL 1/10 was administered subcutaneously at the back at a dose of 0.25 ml per mouse once a day repeatedly from the day of inoculation for 7 days in total. Mitomycin C (MMC) was administered intraperitoneally at a dose of 4 mg/kg on the first day after the inoculation of the cancerous cells.

[5] = test system: Ehrlich's ascites cancerous cells; assay: Enhancement of carcinostatic activity of Mitomycin C to Ehrlich's ascites cancer cells, B-TL 1/10 pretreatment (Table 11); assay type: in vivo, mouse (ICR-strain); settings: 1×10^5 cells, B-TL 1/10 none or 0.25 ml × 8 s.c.
Procedure: (3) B-TL 1/10 was administered subcutaneously at the back of ICR-strain mice (male, 5 weeks old) at a dose of 0.25 ml per mouse once a day repeatedly for 8 days in total, and on the day following the eighth administration, 1×10^5 Ehrlich's ascites cancerous cells were inoculated intraperitoneally. On the day following the inoculation of the cancerous cells, Mitomycin C (MMC) was administered intraperitoneally at a dose of 0.5 mg/kg or 1 mg/kg.

[6] = test system: L-1210 leukemia cells; assay: Enhancement of carcinostatic activity of Mitomycin C to L-1210 leukemia cells, divided B-TL 1/10 dosing (Table 5); assay type: in vivo, mouse (BDF1-strain); settings: MMC 4 mg/kg
Procedure: as §1
(2) In the same manner as in (1), L-1210 leukemia cells were inoculated and MMC and the B-T were administered. B-TL 1/10 was administered subcutaneously at the back, […], and once on the third, 4th, 5th and 6th days after the inoculation.

[7] = test system: L-1210 leukemia cells; assay: Enhancement of carcinostatic activity of Mitomycin C to subcutaneous L-1210 tuberous tumor (Table 7); assay type: in vivo, mouse (BDF1-strain)
Procedure: (4) L-1210 leukemia cells were inoculated subcutaneously at the armpit of BDF1 -strain mice (male, 7 weeks old) in an amount of 1×10^6 cells per mouse to form a tuberous tumor. B-TL 1/10 was administered subcutaneously at the back at a dose of 0.25 ml per mouse once a day repeatedly from the first day after the inoculation of the cancerous cells for 7 days in total, and Mitomycin C was administered into the tumor at a dose of 4 mg/kg on the first day after the inoculation of the cancerous cells.

[8] = test system: P-388 leukemia cells; assay: Enhancement of carcinostatic activity of Mitomycin C to P-388 leukemia cells (Table 8); assay type: in vivo, mouse (BDF1-strain); settings: 1×10^3 cells; MMC 0.5 mg/kg i.p., B-TL 1/10 none or 0.25 ml × 7 s.c.
Procedure: P-388 leukemia cells were inoculated intraperitoneally into BDF1 -strain mice (male, 7 weeks old) in an amount of 1×10^3 cells per mouse, and B-TL 1/10 was administered subcutaneously at the back at a dose of 0.25 ml per mouse on the day of inoculation and thereafter administered subcutaneously at the back at the same dose once a day repeatedly for 7 days. Mitomycin C (MMC) was administered intraperitoneally at a dose of 0.5 mg/kg on the first day after the inoculation of the P-388 leukemia cells.

[9] = test system: L-1210 leukemia cells; assay: Enhancement of carcinostatic activity of Arabinofuranocylcytocine to L-1210 leukemia cells (Table 6); assay type: in vivo, mouse (BDF1-strain); settings: 1×10^3 cells; Ara-C 30 mg/kg × 5 i.p., B-TL 1/10 none or 0.25 ml × 7 s.c.
Procedure: (3) L-1210 leukemia cells were inoculated intraperitoneally into BDF1 -strain mice (male, 6 to 7 weeks old) in an amount of 1×10^3 cells per mouse, and B-TL 1/10 was administered subcutaneously at the back at a dose of 0.25 ml per mouse once a day repeatedly from the day of inoculation for 7 days in total. Arabinofuranocylcytocine (Ara-C) was administered intraperitoneally at a dose of 30 mg/kg once a day from the day following the inoculation of the cancerous cells for 5 days in total.

[10] = test system: Escherichia coli TK-16; assay: Antibacterial activity-enhancing effect with Piperacillin in Escherichia coli infection (Table 17); assay type: in vivo, Escherichia coli; ICR-strain mice; settings: for Number of survivors: 2×10^7 cells/mouse, 5 mice, 7th day
Procedure: Escherichia coli TK-16 was administered intraperitoneally into a group of five ICR-strain mice (male, 4 weeks old) in an amount of 2×10^7 cells/mouse, and after one hour, Piperacillin was administered once subcutaneously at the back. B-TL 1/5 was administered subcutaneously at the back at a dose of 0.25 ml per mouse once a day on the 7th, 6th and 5th days before the inoculation of the bacteria, and B-TL 1/10 at a dose of 0.25 ml per mouse once a day on the second and first days before the inoculation of the bacteria. A physiological salt solution was administered to the control group in the same manner as above, and the numbers of the survivors on the 7th day after the inoculation of the bacteria were observed.

[11] = test system: Escherichia coli TK-16; assay: Infection-controlling effect at a low immunity (cyclophosphamide-treated mice, Table 16); assay type: in vivo, Escherichia coli; ICR-strain mice; settings: for Number of survivors: 15 mice, cyclophosphamide 100 mg/kg, 7th day
Procedure: Cyclophosphamide was administered intraperitoneally into a group of fifteen ICR-strain mice (male, 4 weeks old) at a dose of 100 mg/kg. On the next day, B-TL 1/10 was administered subcutaneously at the back at a dose of 0.25 ml per mouse once a day repeatedly for 4 days, and a physiological salt solution was administered to the contorl group in the same manner as described above. On the day following the administration of B-TL 1/10, Escherichia coli TK-16 was administered intraperitoneally, and the numbers of the survivors on the 7th day after the inoculation of the bacteria were observed.

[12] = 1×10^6 cells s.c., MMC 4 mg/kg into the tumor, B-TL 1/10 none or 0.25 ml × 7 s.c.

## COc1cccc2c1C(=O)c1c(O)c3c(c(O)c1C2=O)C[C@@](O)(C(=O)CO)C[C@@H]3O[C@H]1C[C@H](N)[C@H](O)[C@H](C)O1 [AM, Adriamycin]
[1]
  Number of survivors/Number of tested mice (on the 35th day): 1/4
  T/C (%): 182%
[2]; AM 5 mg/kg i.p.
  Number of survivors/Number of tested mice (on the 40th day): 2/4
  T/C (%): 175%

## CO[C@@]12[C@H](COC(N)=O)C3=C(C(=O)C(C)=C(N)C3=O)N1C[C@@H]1N[C@@H]12 [MMC, Mitomycin C]
[3]
  Number of survivors/Number of tested mice (on the 40th day): 1/10
  T/C (%): 158%
[4]; 1 × 10^3 cells/mouse
  Number of survivors/Number of tested mice (on the 38th day): 4/13
  T/C (%): 192%
[4]; 1×10^3 cells, same tendency at 1×10^4 and 1×10^5
  life-prolonging effect (in words): a life-prolonging effect was observed
[4]; 1 × 10^4 cells/mouse
  Number of survivors/Number of tested mice (on the 38th day): 2/9
  T/C (%): 188%
[4]; 1 × 10^5 cells/mouse
  Number of survivors/Number of tested mice (on the 38th day): 0/4
  T/C (%): 136%
[5]; MMC 0.5 mg/kg i.p.
  Number of survivors/Number of tested mice (on the 40th day): 1/5
  T/C (%): 157%
[5]; MMC 1 mg/kg i.p.
  Number of survivors/Number of tested mice (on the 40th day): 0/5
  T/C (%): 172%
[6]; 1 × 10^3 cells/mouse
  Number of survivors/Number of tested mice (on the 40th day): 1/4
  T/C (%): 187%
[6]; 1 × 10^4 cells/mouse
  Number of survivors/Number of tested mice (on the 40th day): 1/4
  T/C (%): 202%
[6]; 1 × 10^5 cells/mouse
  Number of survivors/Number of tested mice (on the 40th day): 0/4
  T/C (%): 136%
[7]; [12]
  Number of survivors/Number of tested mice (on the 30th day): 4/5
  T/C (%): 304%
[7]; 30th day versus control measured on 8-10th day (control = 100)
  Weight of tumor, Ratio to Control: 156
[7]; on the 30th day, 4 survivors among 5, MMC 4 mg/kg, B-TL 1/10 none or 0.25 ml × 7
  Weight of tumor: 808 ± 461 mg
[8]
  Number of survivors/Number of tested mice (on the 41st day): 0/3
  T/C (%): 101%

## Nc1ccn([C@@H]2O[C@H](CO)[C@@H](O)[C@@H]2O)c(=O)n1 [Ara-C, Arabinofuranocylcytocine]
[9]
  Number of survivors/Number of tested mice (on the 30th day): 0/4
  T/C (%): 152%

## CCN1CCN(C(=O)N[C@@H](C(=O)N[C@@H]2C(=O)N3[C@@H]2SC(C)(C)[C@@H]3C(=O)O)c2ccccc2)C(=O)C1=O [Piperacillin]
[10]; Piperacillin 0.156 mg/mouse s.c.
  Number of survivors: 0
[10]; Piperacillin 0.313 mg/mouse s.c.
  Number of survivors: 0
[10]; Piperacillin 0.625 mg/mouse s.c.
  Number of survivors: 1
[10]; Piperacillin 1.25 mg/mouse s.c.
  Number of survivors: 0
[10]; Piperacillin 2.5 mg/mouse s.c.
  Number of survivors: 2
[10]; Piperacillin dose, without or with B-TL 1/5 then B-TL 1/10 pretreatment
  ED50: 3.54 mg/mouse

## COC(COC(N)=O)C1=C(N2CC2)C(=O)C(C)=C(N2CC2)C1=O (racemic) [CQ, Carboquan]
[2]; CQ 0.25 mg/kg i.p.
  Number of survivors/Number of tested mice (on the 40th day): 0/4
  T/C (%): 138%

## O=P1(N(CCCl)CCCl)NCCCO1 (centres unmarked) [cyclophosphamide, Cyclophosphamide]
[11]; 1.0 × 10^6 cells/mouse
  Number of survivors: 3
[11]; 2.0 × 10^5 cells/mouse
  Number of survivors: 10
[11]; 3.0 × 10^5 cells/mouse
  Number of survivors: 10
[11]; 4.0 × 10^5 cells/mouse
  Number of survivors: 6
[11]; 8.0 × 10^5 cells/mouse
  Number of survivors: 4
[11]; Table 16
  LD50 versus control (in words): significantly lower
[11]; cyclophosphamide 100 mg/kg i.p., without or with B-TL 1/10 0.25 ml s.c. × 4 days
  LD50 (of bacteria): 2.7 × 10^5 cells/mouse
[11]; mice given cyclophosphamide
  infection-controlling effect (in words): the inhibition of the infection-controlling effect was confirmed
